Reference: US11607420B2, “Formulation” (DSM IP ASSETS B.V., priority 2018, dated 2023)

Experiment: Absorption of aqueous solution after dissolving powder in water (riboflavin coloration/release)
Assay type: physicochemical
Conditions: powder containing 10 mg riboflavin in 1000 ml water for 15 min; measured at 545 nm, spectrophotometer
Experimental: 20 mg of coated powder (containing 10 mg of Riboflavin) was dissolved in 1000 ml water for 15 min. Absorption of the solution was measured at 545 nm using a spectrophotometer (Genesys 20, thermo Scientific). Absorption of the solution was 0.065.
10 mg of riboflavin powder was dissolved in 1000 ml water for 15 min. Absorption of the solution was measured at 545 nm using a spectrophotometer (Genesys 20, thermo Scientific). Absorption of the solution was 0.386.
16.6 mg of coated powder (containing 10 mg of Riboflavin) was dissolved in 1000 ml water for 15 min. Absorption of the solution was measured at 545 nm using a spectrophotometer (Genesys 20, thermo Scientific). Absorption of the solution was 0.087.

With `Cc1cc2nc3c(=O)[nH]c(=O)nc-3n(C[C@H](O)[C@H](O)[C@H](O)CO)c2cc1C` [Comparison Example 2, riboflavin] as the molecule, how does the “Absorption of the solution” value read?
Its value is 0.386.
